Reference: patent publication US10851115B2, “Heterocyclic compounds as RSV inhibitors” (Enanta Pharmaceuticals, Inc., priority 2017, dated 2020)

System: Human RSV-A (“Long” strain)
Test: RSV in vitro cytoprotection assay in HEp-2 cells (ATPlite readout)
Assay type: cell-based
Settings: human respiratory syncytial virus, 96 h; HEp-2 cells, 4-day incubation, ATPlite; read-out: Human RSV-A (“Long” strain) EC50
Description: RSV is a single stranded negative sense RNA virus that causes respiratory tract infections which can be dangerous to infants, the elderly, and immunosuppressed individuals. Currently there is no vaccine, and therapeutic options are both costly and of limited effectiveness. These approved treatments are Ribavirin, and Palivizumab/Synagis (a monoclonal antibody). RSV has two genotypes, A and B, which differ primarily in the structure of the virus' surface “G” attachment protein. Our current primary screen focusses on RSV-A and uses an in vitro cytoprotection assay where compounds are added in 2-fold dilutions to cells which are then subjected to fully replicative viral particles. Cell viability is measured several days later along with separate measurements of compound cytotoxicity. This report focuses on the results of our most recent screening of compounds.
HEp-2 cells, (originally derived from tumors grown in irradiated-cortisonised weanling rats that had been injected with epidermoid carcinoma tissue from a person's larynx, but later found to be indistinguishable from HeLa cells by PCR DNA analysis), were used for the culturing of genotype A, “Long” strain RSV. Flasks were inoculated with RSV and viral stocks were collected once cytopathic effect (CPE) was greater than 90%. Viral stocks in 25% sucrose media were snap frozen using liquid nitrogen to increase viral stability. Viral stock titers were quantified by tissue culture infectious dose 50% (TCID50) using 8,000 cells per well and 3-fold viral dilutions across a 96-well plate, cultured for 4 days.
Following extensive parameter testing, the final assay is run as follows: HEp-2 cells are seeded into the inner 60 wells of a 96-well plate at 8,000 cells per well in a volume of 50 μL using Growth Media (DMEM without phenol red, 1% L-Glut, 1% Penn/Strep, 1% nonessential amino acids, 10% FBS). 2-Fold serial dilutions of control and test compounds are added to the wells in duplicate in a total volume of 25 μL. Viral stock is then added to the wells in a volume of 25 μL, bringing the total volume of each well to 100 μL. Each 96-well plate has a control column of 6 wells with cells and virus but no compound (negative control, max CPE), a column with cells but no compound or virus (positive control, minimum CPE), and a column with no cells or virus or compound (background plate/reagent control). The control wells with cells but no virus are given an additional 25 uL of growth media containing an equal quantity of sucrose as those wells receiving the viral stock in order to keep consistent in media and volume conditions. The outer wells of the plate are filled with 125 μL of growth media to act as a thermal and evaporative moat around the test wells. Following a 4-day incubation period, the plates are read using ATPlite (50 uL added per well), which quantifies the amount of ATP (a measure of cell health) present in each well. Assay plates are read using the Envision luminometer. In parallel, cytotoxicity is examined on an additional 96-well plate treated in an identical manner, but substituting the 25 μL of viral stock for 25 μL of growth media. […] EC50 ranges are as follows: A<0.01 μM; B 0.01-0.05 μM; C>0.05 μM.

| Compound | EC50 [µM] |
| --- | --- |
| Cc1cnc(N2CC3(CCOCC3)C2)c(C(=O)Nc2ccc(C(=O)N3CCc4cc(C(=O)Nc5c(F)cccc5F)sc4-c4ncccc43)cc2F)c1 [Example 47] | 0.01 to 0.05 |
| Cc1cccc(F)c1NC(=O)c1cc2c(s1)-c1cccnc1N(C(=O)c1ccc(NC(=O)c3cccnc3N3CC4(CCOCC4)C3)cc1)CC2 [Example 50] | > 0.05 |
| O=C(Nc1c(F)cccc1F)c1cc2c(s1)-c1cnccc1N(C(=O)c1ccc(NC(=O)c3cccnc3N3CC4(CCOCC4)C3)cc1)CC2 [Example 51] | 0.01 to 0.05 |
| O=C(Nc1c(F)cc(F)cc1Cl)c1cc2c(s1)-c1cnccc1N(C(=O)c1ccc(NC(=O)c3cccnc3N3CC4(CCOCC4)C3)cc1)CC2 [Example 52] | 0.01 to 0.05 |
| O=C(Nc1ccc(C(=O)N2CCc3cc(-c4nc5ccccc5[nH]4)sc3-c3cnccc32)cc1)c1cccnc1N1CC2(CCOCC2)C1 [Example 53] | > 0.05 |
| O=C(Nc1ccc(C(=O)N2CCc3cc(-c4nc5ccccc5[nH]4)sc3-c3ncc(F)cc32)cc1)c1cccnc1N1CC2(CCOCC2)C1 [Example 54] | 0.01 to 0.05 |
| O=C(Nc1ccc(C(=O)N2CCc3cc(-c4nc5cccc(Cl)c5[nH]4)sc3-c3ncc(F)cc32)cc1)c1cccnc1N1CC2(CCOCC2)C1 [Example 57] | 0.01 to 0.05 |
| O=C(Nc1ccc(C(=O)N2CCc3cc(-c4nc5cccc(C(F)(F)F)c5[nH]4)sc3-c3ncc(F)cc32)cc1)c1cccnc1N1CC2(CCOCC2)C1 [Example 60] | 0.01 to 0.05 |
| Cc1cnc(N2CC3(CCOCC3)C2)c(C(=O)Nc2ccc(C(=O)N3CCc4cc(C(=O)Nc5c(F)cccc5C(F)(F)F)sc4-c4ncc(F)cc43)cc2)c1 [Example 67] | > 0.05 |
| Cc1cnc(N2CC3COCC3C2)c(C(=O)Nc2ccc(C(=O)N3CCc4cc(-c5nc6ccccc6[nH]5)sc4-c4ncc(F)cc43)cc2)c1 (stereo not shown) [Example 68] | 0.01 to 0.05 |
| Cc1cnc(N2CC3COCC3C2)c(C(=O)Nc2ccc(C(=O)N3CCc4cc(C(=O)Nc5c(F)cccc5F)sc4-c4ncc(F)cc43)cc2)c1 (stereo not shown) [Example 69] | 0.01 to 0.05 |
| Cc1cnc(N2CC3(CCOCC3)C2)c(C(=O)Nc2ccc(C(=O)N3CCc4c(sc(C(=O)Nc5c(F)cccc5C(F)(F)F)c4F)-c4ncccc43)cc2)c1 [Example 77] | 0.01 to 0.05 |
| Cc1cnc(N2CC3(CCOCC3)C2)c(C(=O)Nc2ccc(C(=O)N3CCc4c(sc(-c5nc6ccc(F)cc6[nH]5)c4F)-c4ncccc43)cc2)c1 [Example 79] | < 0.01 |
| Cc1ccc(C(=O)Nc2ccc(C(=O)N3CCc4c(sc(C(=O)Nc5c(F)cccc5F)c4F)-c4ncccc43)cc2)c(N2CC3(CCOCC3)C2)n1 [Example 81] | < 0.01 |
| Cc1ccc(C(=O)Nc2ccc(C(=O)N3CCc4c(sc(-c5nc6ccccc6[nH]5)c4F)-c4ncccc43)cc2)c(N2CC3(CCOCC3)C2)n1 [Example 82] | < 0.01 |
| Cc1ccc(C(=O)Nc2ccc(C(=O)N3CCc4c(sc(C(=O)Nc5c(C)cccc5F)c4F)-c4ncccc43)cc2)c(N2CC3(CCOCC3)C2)n1 [Example 83] | < 0.01 |
| Cc1ccc(C(=O)Nc2ccc(C(=O)N3CCc4c(sc(C(=O)Nc5ncccc5F)c4F)-c4ncccc43)cc2)c(N2CC3(CCOCC3)C2)n1 [Example 84] | < 0.01 |
| Cc1ccc(C(=O)Nc2ccc(C(=O)N3CCc4c(sc(-c5nc6cccc(F)c6[nH]5)c4F)-c4ncccc43)cc2)c(N2CC3(CCOCC3)C2)n1 [Example 85] | < 0.01 |
| Cc1ccc(C(=O)Nc2ccc(C(=O)N3CCc4c(sc(C(=O)Nc5c(F)cccc5Cl)c4F)-c4ncccc43)cc2)c(N2CC3(CCOCC3)C2)n1 [Example 86] | < 0.01 |
| Cc1ccc(C(=O)Nc2ccc(C(=O)N3CCc4c(sc(C(=O)Nc5c(F)cccc5C(F)(F)F)c4F)-c4ncccc43)cc2)c(N2CC3(CCOCC3)C2)n1 [Example 87] | < 0.01 |
| Cc1ccc(C(=O)Nc2ccc(C(=O)N3CCc4c(sc(-c5nc6ccc(F)cc6[nH]5)c4F)-c4ncccc43)cc2)c(N2CC3(CCOCC3)C2)n1 [Example 88] | < 0.01 |
| Cc1cnc(N2CCC3(CC2)COC3)c(C(=O)Nc2ccc(C(=O)N3CCc4cc(C(=O)Nc5c(F)cccc5F)sc4-c4ncccc43)cc2)c1 [Example 89] | < 0.01 |

Now from value to compound:

| EC50 [µM] | Compound |
| --- | --- |
| < 0.01 | Cc1ccc(C(=O)Nc2ccc(C(=O)N3CCc4cc(C(=O)Nc5c(F)cccc5Cl)sc4-c4ncccc43)cc2)c(N2CC3(CCOCC3)C2)n1 [Example 44] |
| < 0.01 | Cc1ccc(C(=O)Nc2ccc(C(=O)N3CCc4cc(C(=O)Nc5c(F)cccc5C(F)(F)F)sc4-c4ncccc43)cc2)c(N2CC3(CCOCC3)C2)n1 [Example 45] |
| < 0.01 | Cc1ccc(C(=O)Nc2ccc(C(=O)N3CCc4cc(-c5nc6cccc(F)c6[nH]5)sc4-c4ncccc43)cc2)c(N2CC3(CCOCC3)C2)n1 [Example 46] |
| < 0.01 | O=C(Nc1c(F)cccc1F)c1cc2c(s1)-c1ncc(F)cc1N(C(=O)c1ccc(NC(=O)c3cccnc3N3CC4(CCOCC4)C3)cc1)CC2 [Example 55] |
| < 0.01 | O=C(Nc1c(F)cc(F)cc1F)c1cc2c(s1)-c1ncc(F)cc1N(C(=O)c1ccc(NC(=O)c3cccnc3N3CC4(CCOCC4)C3)cc1)CC2 [Example 56] |
| < 0.01 | Cc1cnc(N2CC3(CCOCC3)C2)c(C(=O)Nc2ccc(C(=O)N3CCc4cc(-c5nc6ccccc6[nH]5)sc4-c4ncc(F)cc43)cc2)c1 [Example 58] |
| < 0.01 | O=C(Nc1c(F)cc(F)cc1Cl)c1cc2c(s1)-c1ncc(F)cc1N(C(=O)c1ccc(NC(=O)c3cccnc3N3CC4(CCOCC4)C3)cc1)CC2 [Example 59] |
| < 0.01 | Cc1cccc(F)c1NC(=O)c1cc2c(s1)-c1ncc(F)cc1N(C(=O)c1ccc(NC(=O)c3cccnc3N3CC4(CCOCC4)C3)cc1)CC2 [Example 61] |
| < 0.01 | O=C(Nc1c(F)cccc1C(F)(F)F)c1cc2c(s1)-c1ncc(F)cc1N(C(=O)c1ccc(NC(=O)c3cccnc3N3CC4(CCOCC4)C3)cc1)CC2 [Example 62] |
| < 0.01 | Cc1cnc(N2CC3(CCOCC3)C2)c(C(=O)Nc2ccc(C(=O)N3CCc4cc(-c5nc6cccc(Cl)c6[nH]5)sc4-c4ncc(F)cc43)cc2)c1 [Example 63] |
| < 0.01 | Cc1cnc(N2CC3(CCOCC3)C2)c(C(=O)Nc2ccc(C(=O)N3CCc4cc(-c5nc6cccc(F)c6[nH]5)sc4-c4ncc(F)cc43)cc2)c1 [Example 64] |
| < 0.01 | Cc1cnc(N2CC3(CCOCC3)C2)c(C(=O)Nc2ccc(C(=O)N3CCc4cc(C(=O)Nc5c(F)cc(F)cc5Cl)sc4-c4ncc(F)cc43)cc2)c1 [Example 65] |
| < 0.01 | Cc1cnc(N2CC3(CCOCC3)C2)c(C(=O)Nc2ccc(C(=O)N3CCc4cc(C(=O)Nc5c(Cl)cccc5Cl)sc4-c4ncc(F)cc43)cc2)c1 [Example 66] |
| < 0.01 | Cc1cnc(N2CC3(CCOCC3)C2)c(C(=O)Nc2ccc(C(=O)N3CCc4c(sc(C(=O)Nc5c(F)cccc5F)c4F)-c4ncccc43)cc2)c1 [Example 70, N-(2,6-difluorophenyl)-8-fluoro-5-(4-(5-methyl-2-(7-oxa-2-azaspiro[3.5]nonan-2-yl)nicotinamido)benzoyl)-6,7-dihydro-5H-pyrido[3,2-b]thieno[2,3-d]azepine-9-carboxamide] |
| < 0.01 | Cc1cnc(N2CC3(CCOCC3)C2)c(C(=O)Nc2ccc(C(=O)N3CCc4c(sc(-c5nc6ccccc6[nH]5)c4F)-c4ncccc43)cc2)c1 [Example 71] |
| < 0.01 | Cc1cnc(N2CC3(CCOCC3)C2)c(C(=O)Nc2ccc(C(=O)N3CCc4c(sc(C(=O)Nc5ncccc5F)c4F)-c4ncccc43)cc2)c1 [Example 72] |
| < 0.01 | Cc1cnc(N2CC3(CCOCC3)C2)c(C(=O)Nc2ccc(C(=O)N3CCc4c(sc(C(=O)Nc5c(C)cccc5F)c4F)-c4ncccc43)cc2)c1 [Example 73] |
| < 0.01 | Cc1cnc(N2CC3(CCOCC3)C2)c(C(=O)Nc2ccc(C(=O)N3CCc4c(sc(C(=O)Nc5ccccc5)c4F)-c4ncccc43)cc2)c1 [Example 74] |
| < 0.01 | Cc1cnc(N2CC3(CCOCC3)C2)c(C(=O)Nc2ccc(C(=O)N3CCc4c(sc(C(=O)Nc5c(C)cccc5C#N)c4F)-c4ncccc43)cc2)c1 [Example 75] |
| < 0.01 | Cc1cnc(N2CC3(CCOCC3)C2)c(C(=O)Nc2ccc(C(=O)N3CCc4c(sc(C(=O)Nc5c(F)cccc5Cl)c4F)-c4ncccc43)cc2)c1 [Example 76] |
| < 0.01 | Cc1cnc(N2CC3(CCOCC3)C2)c(C(=O)Nc2ccc(C(=O)N3CCc4c(sc(-c5nc6cccc(F)c6[nH]5)c4F)-c4ncccc43)cc2)c1 [Example 78] |
